Test results published in patent publication US20240325412A1, “COMBINATIONS” (Recurium IP Holdings, LLC, priority 2021, published 2024).

What was measured:
MOLM-13 cells = assay: CellTiter-Glo Luminescent Cell Viability Assay, MOLM-13; type: cell-based; details: Homo sapiens, 72 h, Compound (1A) 4 nM, Compound (B) 12 nM alone / 120 nM in combinations, Azacitidine 300 nM
Protocol: (§1) Cell proliferation was measured using the CellTiter-Glo® Luminescent Cell Viability Assay. The assay involved the addition of a single reagent (CellTiter-Glo® Reagent) directly to cells cultured in serum-supplemented medium. OPM-2, MOLM-13 and HL-60 cells were cultured according to ATCC recommendations and were seeded at 10,000 cells per well.
(§2) Compound (1 A), Compound (B) and Dexamethasone or Azacitidine were prepared as a DMSO stock solution (10 mM). For OPM-2 cell line, compounds were tested in triplicate using Dexamethasone; MOLM-13 and HL-60 cell lines compound were tested in triplicate using Azacitidine. Plates were incubated at 37° C., 5% CO2 for 72 h and then equilibrated at room temperature (RT) for approximately 30 min. An equal-volume amount of CellTiter-Glo® Reagent (100 μL) was added to each well. Plates were mixed for 2 min on an orbital shaker to induce cell lysis and then incubated at RT for 10 min to stabilize the luminescent signal. Luminescence (RLU (relative light unit)) was recorded using a SpectraMAX, M5e plate reader according to CellTiter-Glo protocol. Percent inhibition was calculated using the following formula: % inhibition=(RLU*100/(RLU of the cell background)).

HL-60 cells [1] = assay: CellTiter-Glo Luminescent Cell Viability Assay, HL-60; type: cell-based; details: Homo sapiens, 72 h, Compound (1A) 40 nM, Compound (B) 120 nM, Azacitidine 1500 nM, alone or combined
Protocol: as §1, §2

HL-60 cells [2] = assay: HL-60 leukemia xenograft model; type: in vivo, Mice; details: HL-60 xenograft, Compound (1A) 25 mg/kg p.o. qd×21, Compound (B) 30 mg/kg p.o., azacitidine 1 mg/kg IP 5 days on 2 days off
Protocol: Mice were inoculated with HL-60 cells subcutaneously on the right flank with the single cell suspension of 95% viable tumor cells (1×10^7) in 100 μL IMDM Matrigel mixture (1:1 ratio) without serum for the tumor development. The treatment was started when the mean tumor size reached approximately 214 mm^3, with individual tumor size ranging from 185-245 mm^3. Animals were randomly distributed into treatment groups of 10 animals each and dosed with vehicle and indicated compounds at indicated dosage and frequency shown in FIG. 5 and Table 4. In FIG. 5, the bottom line is Compound (1A) 25 mg/kg p.o. qd×21+Compound (B) 30 mg/kg p.o. pd×21+azacitidine 1 mg/kg IP 5 days on 2 days off×3 cycle, the second from the bottom line is Compound (1A)+Compound (B), the third from the bottom line is Compound (1A)+azacytidine, the fourth from the bottom line is Compound (1A), the top line is Vehicle, the second from the top line is Compound (B), and the remaining two lines are azacytidine (indicated with triangles) and Compound (B)+azacytidine (indicated with diamonds). Tumor volumes were evaluated twice per week to calculate tumor volume over time, and mice were weighed twice per week as a surrogate for signs of toxicity. Tumor growth inhibition (TGI) was calculated using the following equation TGI=(1−(Td−T0)/(Cd−C0))×100%. Td and Cd are the mean tumor volumes of the treated and control animals, and T0 and C0 are the mean tumor volumes of the treated and control animals at the start of the experiment. The tumor regression was defined as individual tumor volume (TV) decrease (terminal TV compared to initial TV). FIG. 5 and Table 4 illustrate that single agent, double agent and triple treatment of Compound (1A) at 25 mg/kg, Compound (B) at 30 mg/kg and azacitidine at 1 mg/kg.

OPM-2 cells [3] = assay: OPM-2 multiple myeloma xenograft model; type: in vivo, Mice; details: OPM-2 xenograft, Compound (1A) 25 mg/kg, Compound (B) 30 mg/kg, Bortezomib 0.5 mg/kg (text: 100 and 60 mg/kg p.o. qd×21, IP BIW)
Protocol: Mice were inoculated with OPM-2 cells subcutaneously on the right flank with the single cell suspension of 95% viable tumor cells (1×10^7) in 100 μL IMDM Matrigel mixture (1:1 ratio) without serum for the tumor development. The treatment was started when the mean tumor size reached approximately 200 mm^3, with individual tumor size ranging from 185-225 mm^3. Animals were randomly distributed into treatment groups of 10 animals each and dosed with vehicle and indicated compounds at indicated dosage and frequency shown in FIG. 6 and Table 5. In FIG. 6, the bottom line is Compound (1A) 100 mg/kg p.o. qd×21+Compound (B) 60 mg/kg p.o. pd×21+Bortezomib 0.5 mg/kg IP BIW (twice a week)×3, the second from the bottom line is Compound (1A)+Compound (B), the third from the bottom line is Compound (B)+Bortezomib, the fourth from the bottom line is Compound (B), the top line is Vehicle, the second from the top is Bortezomib, the third from the top line (indicted with squares) is Compound (1A) and the fourth from the top line is Compound (1A)+Bortezomib. Tumor volumes were evaluated twice per week to calculate tumor volume over time, and mice were weighed twice per week as a surrogate for signs of toxicity. Tumor growth inhibition (TGI) was calculated using the following equation TGI=(1−(Td−T0)/(Cd−C0))×100%. Td and Cd are the mean tumor volumes of the treated and control animals, and T0 and C0 are the mean tumor volumes of the treated and control animals at the start of the experiment. The tumor regression was defined as individual tumor volume (TV) decrease (terminal TV compared to initial TV). FIG. 6 and Table 5 illustrate that single agent, double agent, and triple treatment of Compound (1A) at 100 mg/kg, Compound (B) at 60 mg/kg and bortezomib at 0.5 mg/kg.

OPM-2 cells [4] = assay: CellTiter-Glo Luminescent Cell Viability Assay, OPM-2; type: cell-based; details: Homo sapiens, 72 h, Compound (1A) 1500 nM, Compound (B) 300 nM, Dexamethasone 100 nM, alone or combined
Protocol: as §1, §2

KMS-12-BM cells = assay: KMS-12-BM multiple myeloma xenograft model; type: in vivo, Mice; details: KMS-12-BM xenograft, Compound (1A) 25 mg/kg, Compound (B) 30 mg/kg, Dexamethasone 1 mg/kg (text: 100 and 60 mg/kg)
Protocol: Mice were inoculated with KMS-12-BM cells subcutaneously on the right flank with the single cell suspension of 95% viable tumor cells (1×10^7) in 100 μL IMDM Matrigel mixture (1:1 ratio) without serum for the tumor development. The treatment was started when the mean tumor size reached approximately 193 mm^3, with individual tumor size ranging from 185-220 mm^3. Animals were randomly distributed into treatment groups of 10 animals each and dosed with vehicle and indicated compounds at indicated dosage and frequency shown in FIG. 7 and Table 6. In FIG. 7, the bottom line is Compound (1A) 100 mg/kg p.o. qd×21+Compound (B) 60 mg/kg p.o. pd×21+Dexamethasone 1 mg/kg IP 5 days on 2 days off ×3, the second from the bottom line is Compound (1A)+Compound (B), the third from the bottom line is Compound (B)+Dexamethasone, the fourth from the bottom line (indicated with triangles) is Compound (B), the top line is Vehicle, the second from the top line is Dexamethasone, the third from the top line is Compound (1A) and the remaining line is Compound (1A)+Dexamethasone. Tumor volumes were evaluated twice per week to calculate tumor volume over time, and mice were weighed twice per week as a surrogate for signs of toxicity. Tumor growth inhibition (TGI) was calculated using the following equation TGI=(1−(Td−T0)/(Cd−C0))×100%. Td and Cd are the mean tumor volumes of the treated and control animals, and T0 and C0 are the mean tumor volumes of the treated and control animals at the start of the experiment. The tumor regression was defined as individual tumor volume (TV) decrease (terminal TV compared to initial TV). The percent tumor regression was calculated using the formula: (1−(Td/T0))×100%.

[5] = test system: MDA-MB-436 cells (TNBC breast cancer cell line); assay: MDA-MB-436 triple negative breast cancer xenograft model; type: in vivo, Mice; details: MDA-MB-436 xenograft; Compound (1A) 200 mg/kg p.o. qd×40, Compound (B) 60 mg/kg p.o. qd×40; day 40
Protocol: Mice were inoculated with MDA-MB-436 cells (TNBC breast cancer cell line) subcutaneously on the right flank with the single cell suspension of 95% viable tumor cells (1×10^7) in 100 μL DMDM Matrigel mixture (1:1 ratio) without serum for the tumor development. The treatment was started when the mean tumor size reached approximately 210 mm^3 for each model (with individual tumor volumes between 180-240 mm^3). Animals were randomly distributed into treatment groups of 8 animals each and dosed with vehicle and indicated compounds at indicated dosage and frequency shown in FIG. 8 and Table 7. In FIG. 8, the top line (indicated with circles) is Vehicle control, the second from the top line (indicated with diamonds) is Compound (1A) (200 mg/kg 10 mL/kg p.o. qd×40) and the third line from the top (indicated with triangles) Compound (B) (60 mg/kg 10 mL/kg p.o. qd×40). The bottom line (indicated with circles) is Compound (1A) (200 mg/kg 10 mL/kg p.o. qd×40)+Compound (B) (60 mg/kg 10 mL/kg p.o. qd×40). Tumor volumes were evaluated twice per week to calculate tumor volume over time, and mice were weighed twice per week as a surrogate for signs of toxicity. Tumor growth inhibition (TGI) was calculated using the following equation TGI=(1−(Td−T0)/(Cd−C0))×100%. […]

SMILES | TGI % (DAY 18) (HL-60 cells [2]) | TGI % (DAY 17) (OPM-2 cells [3]) | TGI % (DAY 14) (KMS-12-BM cells) | TGI % [5] | other results
Nc1ncn([C@@H]2O[C@H](CO)[C@@H](O)[C@H]2O)c(=O)n1 [Azacitidine, reference compound] | 16% | – | – | – | inhibition at 0.3 µM (MOLM-13 cells): 10.7%; inhibition at 1.5 µM (HL-60 cells [1]): 2.3%
CC(C)C[C@H](NC(=O)[C@H](Cc1ccccc1)NC(=O)c1cnccn1)B(O)O [Bortezomib, reference compound] | – | 0% | – | – | –
CC1(C)CCC(CN2CCN(c3ccc(C(=O)NS(=O)(=O)c4ccc(NC[C@H]5CC[C@](C)(O)CC5)c([N+](=O)[O-])c4)c(Oc4cnc5[nH]ccc5c4)c3)CC2)=C(C23CC(C(F)F)(C2)C3)C1 [Compound (1A)] | 25% | 18% | 62.8% | 60% | inhibition at 1.5 µM (OPM-2 cells [4]): 43%; inhibition at 0.004 µM (MOLM-13 cells): 35.4%; inhibition at 0.04 µM (HL-60 cells [1]): 20.4%
C=CCn1c(=O)c2cnc(Nc3ccc(N4CCN(C)CC4)cc3)nc2n1-c1ccc2c(n1)[C@@](O)(CC)CC2 [Compound (B)] | 6% | 33% | 74.5% | 55% | inhibition at 0.3 µM (OPM-2 cells [4]): 4.3%; inhibition at 0.012 µM (MOLM-13 cells): 38.6%; inhibition at 0.12 µM (HL-60 cells [1]): 5.6%
C[C@@H]1C[C@H]2[C@@H]3CCC4=CC(=O)C=C[C@]4(C)[C@@]3(F)[C@@H](O)C[C@]2(C)[C@@]1(O)C(=O)CO [Dexamethasone, reference compound] | – | – | 22.5% | – | inhibition at 0.1 µM (OPM-2 cells [4]): 32%
